According to patent publication US9249102B2 (priority 2012, dated 2016):
Read-outs that look alike come from different tables or passages of the source.

Assays:
[1] = test system: microfilaria of Dirofilaria immitis; experiment: Method F: microfilaria of Dirofilaria immitis, survival at 24 hours
Haemonchus contortus = experiment: Method A: Haemonchus contortus L1 larvae, microtitre plate screen; conditions: 96 h, read-out: motility inhibition
[2] = survival of microfilaria at 24 hours

Row | SMILES | EC50 [1, 2] [µg/mL] | inhibition at 5 µg/mL (Haemonchus contortus) [%] | EC50 [1] [µg/mL]
1 | CC(CN1CCN(c2ccc3ccccc3c2)CC1)C(=O)N1CCC(Nc2ccc([N+](=O)[O-])c(C(F)(F)F)c2)CC1 (stereo not shown) [Compound 13, 2-methyl-3-[4-(naphthalen-2-yl)piperazin-1-yl]-1-(4-[[4-nitro-3-(trifluoromethyl)phenyl]amino]piperidin-1-yl)propan-1-one] | < 1 | ≥ 90 | 
2 | O=C(CO[C@H]1CC[C@H](Nc2ccc([N+](=O)[O-])c(C(F)(F)F)c2)CC1)N1CCN(c2ccc3ccccc3c2)CC1 [Compound 14, 1-[4-(naphthalen-2-yl)piperazin-1-yl]-2-[(4-[[4-nitro-3-(trifluoromethyl)phenyl]amino]cyclohexyl)oxy]ethan-1-one] | < 1 | ≥ 90 | 
3 | O=C(CO[C@H]1CC[C@H](Nc2ccc([N+](=O)[O-])c(C(F)(F)F)c2)CC1)N1CCN(c2ccc3cc(F)ccc3c2)CC1 [Compound 17, 1-[4-(6-fluoronaphthalen-2-yl)piperazin-1-yl]-2-[(4-[[4-nitro-3-(trifluoromethyl)phenyl]amino]cyclohexyl)oxy]ethan-1-one] | < 1 | ≥ 90 | 
4 | N#Cc1ccc(NC2CCN(C(=O)CCCN3CCN(c4ccc5cc(F)ccc5c4)CC3)CC2)cc1C(F)(F)F [Compound 18, 4-[(1-[4-[4-(6-fluoronaphthalen-2-yl)piperazin-1-yl]butanoyl]-piperidin-4-yl)amino]-2-(trifluoromethyl)benzonitrile] | < 1 | ≥ 90 | 
5 | O=C(CO[C@H]1CC[C@H](Nc2ccc([N+](=O)[O-])c(C(F)(F)F)c2)CC1)N1CCN(C(=O)C2Cc3cc(Cl)ccc3O2)CC1 (stereo partly shown) [Compound 79, 1-[4-[(5-chloro-2,3-dihydro-1-benzofuran-2-yl)carbonyl]piperazin-1-yl]-2-[(4-[[4-nitro-3-(trifluoromethyl)phenyl]amino]cyclohexyl)oxy]ethan-1-one] | < 5 | ≥ 90 | 
6 | O=C(CO[C@H]1CC[C@H](Nc2ccc([N+](=O)[O-])c(C(F)(F)F)c2)CC1)N1CCN(C(=O)C2Cc3cc(C(F)(F)F)ccc3O2)CC1 (stereo partly shown) [Compound 81, 2-[4-(4-nitro-3-trifluoromethyl-phenylamino)-cyclohexyloxy]-1-[4-(5-trifluoromethyl-2,3-dihydro-benzofuran-2-carbonyl)-piperazin-1-yl]-ethanone] | < 1 | ≥ 90 | 
7 | N#Cc1ccc(N[C@H]2CC[C@H](OCC(=O)N3CCN(CC4Cc5cc(F)ccc5O4)CC3)CC2)cc1C(F)(F)F (stereo partly shown) [Compound 83] | < 5 | ≥ 90 | 
8 | N#Cc1ccc(N[C@H]2CC[C@H](OCC(=O)N3CCN(C(=O)C4Cc5cc(C(F)(F)F)ccc5O4)CC3)CC2)cc1C(F)(F)F (stereo partly shown) [Compound 87, 2-[4-(4-cyano-3-trifluoromethyl-phenylamino)-cyclohexyloxy]-1-[4-(5-trifluoromethyl-2,3-dihydro-benzofuran-2-carbonyl)-piperazin-1-yl]-ethanone] | < 5 | ≥ 90 | 
9 | O=C(CO[C@H]1CC[C@H](Nc2ccc([N+](=O)[O-])c(C(F)(F)F)c2)CC1)N1CCN(c2ccc3ccccc3n2)CC1 [Compound 88, 2-((1R,4R)-4-(4-nitro-3-(trifluoromethyl)phenylamino)cyclohexyloxy)-1-(4-(quinolin-2-yl)piperazin-1-yl)ethanone] | < 5 | ≥ 90 | 
10 | CC(CN1CCN(c2ccc3cc(C(F)(F)F)ccc3n2)CC1)C(=O)N1CCC(Nc2ccc([N+](=O)[O-])c(C(F)(F)F)c2)CC1 (stereo not shown) [Compound 92, 2-methyl-1-(4-(4-nitro-3-(trifluoromethyl)phenylamino)piperidin-1-yl)-3-(4-(6-(trifluoromethyl)quinolin-2-yl)piperazin-1-yl)propan-1-one] | < 1 | ≥ 90 | 
11 | CC(CN1CCN(c2ccc3cc(Cl)ccc3n2)CC1)C(=O)N1CCC(Nc2ccc([N+](=O)[O-])c(C(F)(F)F)c2)CC1 (stereo not shown) [Compound 93, 3-[4-(6-chloroquinolin-2-yl)piperazin-1-yl]-2-methyl-1-(4-[[4-nitro-3-(trifluoromethyl)phenyl]amino]piperidin-1-yl)propan-1-one] | < 5 | ≥ 90 | 
12 | N#Cc1ccc(NC2CCN(C(=O)CCCN3CCN(c4ccc5ccccc5n4)CC3)CC2)cc1C(F)(F)F [Compound 94, 4-[(1-[4-[4-(quinolin-2-yl)piperazin-1-yl]butanoyl]piperidin-4-yl)amino]-2-(trifluoromethyl)benzonitrile] | < 5 |  | 
13 | N#Cc1ccc(NC2CCN(C(=O)CCCN3CCN(c4ccc5cc(C(F)(F)F)ccc5n4)CC3)CC2)cc1C(F)(F)F [Compound 95, 2-(trifluoromethyl)-4-[[1-(4-[4-[6-(trifluoromethyl)quinolin-2-yl]piperazin-1-yl]butanoyl)piperidin-4-yl]amino]benzonitrile] | < 5 |  | 
14 | N#Cc1ccc(NC2CCN(C(=O)CCCN3CCN(c4ccc5cc(Cl)ccc5n4)CC3)CC2)cc1C(F)(F)F [Compound 96, 4-[(1-[4-[4-(6-chloroquinolin-2-yl)piperazin-1-yl]butanoyl]piperidin-4-yl)amino]-2-(trifluoromethyl)benzonitrile] | < 5 | ≥ 90 | 
15 | Cc1cc(N2CCN(C(=O)CO[C@H]3CC[C@H](Nc4ccc([N+](=O)[O-])c(C(F)(F)F)c4)CC3)CC2)nc2ccccc12 [Compound 98, 1-[4-(4-methylquinolin-2-yl)piperazin-1-yl]-2-[(4-[[4-nitro-3-(trifluoromethyl)phenyl]amino]cyclohexyl)oxy]ethan-1-one] | < 5 | ≥ 90 | 
16 | CC(CN1CCN(c2ccc3cc(F)ccc3n2)CC1)C(=O)N1CCC(Nc2ccc([N+](=O)[O-])c(C(F)(F)F)c2)CC1 (stereo not shown) [Compound 100, 3-[4-(6-fluoroquinolin-2-yl)piperazin-1-yl]-2-methyl-1-(4-[[4-nitro-3-(trifluoromethyl)phenyl]amino]piperidin-1-yl)propan-1-one] | < 5 | ≥ 90 | 
17 | Cc1cc(N2CCN(CC(C)C(=O)N3CCC(Nc4ccc([N+](=O)[O-])c(C(F)(F)F)c4)CC3)CC2)nc2ccccc12 (stereo not shown) [Compound 101, 2-methyl-3-[4-(4-methylquinolin-2-yl)piperazin-1-yl]-1-(4-[[4-nitro-3-(trifluoromethyl)phenyl]amino]piperidin-1-yl)propan-1-one] | < 1 |  | 
18 | Cc1cc(N2CCN(CC(C)C(=O)N3CCC(Nc4ccc([N+](=O)[O-])c(C(F)(F)F)c4)CC3)CC2)nc2ccc(F)cc12 (stereo not shown) [Compound 102, 3-[4-(6-fluoro-4-methylquinolin-2-yl)piperazin-1-yl]-2-methyl-1-(4-[[4-nitro-3-(trifluoromethyl)phenyl]amino]piperidin-1-yl)propan-1-one] | < 1 |  | 
19 | O=C(COc1ccc2ccc([N+](=O)[O-])c(C(F)(F)F)c2c1)N1CCN(c2ccc(Cl)cn2)CC1 [Compound 114, 1-[4-(5-chloropyridin-2-yl)piperazin-1-yl]-2-[[7-nitro-8-(trifluoromethyl)naphthalen-2-yl]oxy]ethan-1-one] | < 5 |  | 
20 | O=C(CO[C@H]1CC[C@H](Nc2ccc([N+](=O)[O-])c(C(F)(F)F)c2)CC1)N1CCN(c2ccnc3ccccc23)CC1 [Compound 160, 2-[(4-[[4-nitro-3-(trifluoromethyl)phenyl]amino]cyclohexyl)oxy]-1-[4-(quinolin-4-yl)piperazin-1-yl]ethan-1-one] | < 5 |  | 
21 | O=C(CO[C@H]1CC[C@H](Nc2ccc([N+](=O)[O-])c(C(F)(F)F)c2)CC1)N1CCN(c2ccc(Cl)c3ccccc23)CC1 [Compound 161, 1-[4-(4-chloronaphthalen-1-yl)piperazin-1-yl]-2-[(4-[[4-nitro-3-(trifluoromethyl)phenyl]amino]cyclohe-xyl)oxy]ethan-1-one] | < 5 |  | 
22 | O=C(CO[C@H]1CC[C@H](Nc2ccc([N+](=O)[O-])c(C(F)(F)F)c2)CC1)N1CCc2ccccc2C1 [Compound 192, 2-[[4-[[4-nitro-3-(trifluoromethyl)phenyl]amino]cyclohexyl]oxy]-1-(1,2,3,4-tetrahydroisoquinolin-2-yl)ethan-1-one] | < 1 |  | 
23 | O=C(CO[C@H]1CC[C@H](Nc2ccc([N+](=O)[O-])c(C(F)(F)F)c2)CC1)N1CCc2cc(F)ccc2C1 [Compound 193, 1-(6-fluoro-1,2,3,4-tetrahydroisoquinolin-2-yl)-2-[[4-[[4-nitro-3-(trifluoromethyl)phenyl]amino]cyclohexyl]oxy]ethan-1-one] | < 1 |  | 
24 | O=C(CO[C@H]1CC[C@H](Nc2ccc([N+](=O)[O-])c(C(F)(F)F)c2)CC1)N1CCc2cc(Cl)ccc2C1 [Compound 195, 1-(6-chloro-1,2,3,4-tetrahydroisoquinolin-2-yl)-2-[[4-[[4-nitro-3-(trifluoromethyl)phenyl]amino]cyclohexyl]oxy]ethan-1-one] |  |  | < 1
25 | O=C(CO[C@H]1CC[C@H](Nc2ccc([N+](=O)[O-])c(C(F)(F)F)c2)CC1)Nc1ccc2cc(C(F)(F)F)ccc2n1 [Compound 210, 2-[[4-[[4-nitro-3-(trifluoromethyl)phenyl]amino]cyclohexyl]oxy]-N-[6-(trifluoromethyl)quino-lin-2-yl]acetamide] | < 1 |  | 
26 | O=C(NCCOc1ccc(Nc2ccc([N+](=O)[O-])c(C(F)(F)F)c2)cc1)C(=O)NCc1cc2cc(F)ccc2o1 [Compound 229, N^1-((5-fluorobenzofuran-2-yl)methyl)-N^2-(2-(4-(4-nitro-3-(trifluoromethyl)phenylamino)phenoxy)ethyl)oxalamide] | < 1 |  | 
27 | O=C(NCCOc1ccc(Nc2ccc([N+](=O)[O-])c(C(F)(F)F)c2)cc1)C(=O)NCc1cc2cc(Cl)ccc2o1 [Compound 230, N^1-((5-chlorobenzofuran-2-yl)methyl)-N^2-(2-(4-(4-nitro-3-(trifluoromethyl)phenylamino)phenoxy)ethyl)oxalamide] | < 5 |  | 
28 | O=C(NCCOc1ccc(Nc2ccc([N+](=O)[O-])c(C(F)(F)F)c2)cc1)C(=O)NCc1cc2cc(C(F)(F)F)ccc2o1 [Compound 231] | < 5 |  | 
29 | CN(C(=O)C(=O)NCCO[C@H]1CC[C@H](Nc2ccc([N+](=O)[O-])c(C(F)(F)F)c2)CC1)c1ccc2cc(F)ccc2n1 [Compound 242] | < 1 |  | 
